Results on eight compounds are retold here after paper PMC8786951, “Identification of an allatostatin C signaling system in mollusc Aplysia” (Scientific Reports, 2022).

Several values for one entry are separate records, joined by “and”; a condition that tells them apart may be missing. Equal entries are not always repeated. Where two headings read alike, the source gives them in different places. Where a SMILES comes first, the peptide text is derived from it. Bridges are numbered along the chain shown (N, C = ends).

One experiment deals with T1, AstC-R (Aplysia californica, UniProt A0ABM0JJJ7).
T1 sequence (A0ABM0JJJ7 1-425): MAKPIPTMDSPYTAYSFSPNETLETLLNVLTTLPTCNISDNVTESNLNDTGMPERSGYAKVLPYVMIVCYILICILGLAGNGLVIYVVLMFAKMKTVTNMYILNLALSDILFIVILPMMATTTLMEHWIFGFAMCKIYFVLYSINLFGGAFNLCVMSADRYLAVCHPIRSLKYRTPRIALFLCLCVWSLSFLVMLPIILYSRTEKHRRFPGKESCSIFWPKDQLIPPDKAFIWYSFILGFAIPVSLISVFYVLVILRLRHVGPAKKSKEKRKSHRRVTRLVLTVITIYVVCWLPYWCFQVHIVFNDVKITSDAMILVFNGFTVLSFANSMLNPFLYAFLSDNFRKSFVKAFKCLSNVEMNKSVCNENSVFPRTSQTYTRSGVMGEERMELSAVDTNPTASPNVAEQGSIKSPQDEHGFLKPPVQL
In words: IP1 accumulation assay, CHO-K1 cells expressing putative receptor AstC-R. It is filed as cell-based. Particulars: for EC50: IP1 accumulation, CHO cells co-transfected with AstC-R and Gα16 plasmids, peptide 10^–12 M to 10^–4 M; for Screening: IP1 concentration on AstC-R at 10^–5 M vs 10^–10 M: CHO cells co-transfected with AstC-R and Gα16, 10^–10 M used as control, paired t-test, n = 6 (AstC' n = 5; AstCG-DP, SPTR n = 3); for IP1 response of AstC-R, preliminary experiments: CHO cells transfected with receptor plasmid only, without Gα16. The text has this: Because Gα16 is a promiscuous Gαq protein that will bind to most GPCRs[10],[53], this procedure would ensure an IP1 response when a potential ligand binds to its GPCR.
Inositol monophosphate 1 (IP1) accumulation assay measures concentration of IP1, that is hydrolyzed from the second messenger, […] (IP3), generated by Gαq pathway when a G-protein coupled receptor (GPCR) expressed in CHO-K1 cells is activated by an appropriate ligand. In order to express the Aplysia putative receptors transiently in CHO-K1, the cDNA was cloned into the mammalian expression vector pcDNA3.1( +). […] Transfection experiments were performed when the cells were grown to 70–90% confluence. In preliminary experiments, for each dish (60-mm diameter), 4 μg of the putative receptor plasmids [in pcDNA3.1( +)] were mixed with 400 μl of Opti-MEM (Gibco, 11058021), followed by the addition of 15 μl of Turbofect (Thermo Fisher Scientific, R0531). […] The CHO cells with the reagents added above were mixed gently, and incubated at room temperature for 15 min. The DNA/Turbofect mixture dropwise was then added to the dish, and the cells were incubated at 37 °C in 5% CO2 overnight. The next day, the cells were trypsinized and reseeded in opaque white 96-well half-area (Corning, 3688) or 384-well tissue culture-treated plates (Corning, 3570) at a density of 20,000 cells/well in F-12K and 10% FBS and incubated at 37 °C in 5% CO2 overnight. On the third day, the activation of the putative receptor was detected by monitoring IP1 accumulation using IP1 detection kit (Cisbio, 62IPAPEB) in Tecan Spark. Except for using 0.5 × reagent, all other procedures were performed in accordance with the IP1 detection kit manufacturer’s instructions. Peptides are synthesized by Sangon Biotech, Guoping Pharmaceutical or ChinaPeptides (Supplementary Fig. 4), and are aliquoted in 50 nmol EP tubes, stored at −20 °C until use.

In the next experiment the test system is Class-A_GPCR1. As to the kind of experiment: IP1 accumulation assay, CHO-K1 cells expressing putative receptor Class-A_GPCR1 (control). Particulars: CHO cells transfected with receptor plasmid only, without Gα16. It is filed as cell-based, Aplysia californica. The text has this: We cloned AstC-R and Class-A_GPCR1 into pcDNA3.1 plasmids, and expressed them in CHO cells. We then used the IP1 accumulation assay that detects IP1 generated in the Gαq pathway (see Methods) to determine whether our predicted Aplysia peptides (i.e., AstC or AstCG-DP) and other related peptides which we synthesized (see Fig. 7G) could activate the receptors. In preliminary experiments, we only transfected plasmids for a putative receptor in CHO cells. […] Thus, for all the experiments shown in Fig. 7, we co-transfected plasmids for the putative receptor and Gα16 plasmids in CHO cells. Because Gα16 is a promiscuous Gαq protein that will bind to most GPCRs[10],[53], this procedure would ensure an IP1 response when a potential ligand binds to its GPCR.
Inositol monophosphate 1 (IP1) accumulation assay measures concentration of IP1, that is hydrolyzed from the second messenger, […] (IP3), generated by Gαq pathway when a G-protein coupled receptor (GPCR) expressed in CHO-K1 cells is activated by an appropriate ligand. In order to express the Aplysia putative receptors transiently in CHO-K1, the cDNA was cloned into the mammalian expression vector pcDNA3.1( +). […] On the third day, the activation of the putative receptor was detected by monitoring IP1 accumulation using IP1 detection kit (Cisbio, 62IPAPEB) in Tecan Spark. […]

For the next experiment, the target named is Platynereis receptor. Particulars: annelid Platynereis dumerilii allatostatin C on its putative receptor; cited from earlier work. The text has this:
Growing databases of the Aplysia genome and transcriptome are becoming available, but relatively few studies have taken advantage of this information (see[53],[54]). […] Previous bioinformatic studies in several molluscs predicted the presence of an allatostatin C precursor (Fig. 3, e.g.,[57]) and of AstC with the ...

Where [1] appears, read: average EC50, n = 3, read-out: [EC50] on AstC-R.
[2] abbreviates: average log[EC50], n = 3, read-out: log[EC50] on AstC-R (converted).

With `CC[C@H](C)[C@H](NC(=O)[C@H](Cc1c[nH]cn1)NC(=O)[C@@H](N)CO)C(=O)N[C@@H](CCCNC(=N)N)C(=O)N[C@H]1CSSC[C@@H](C(=O)N[C@@H](Cc2ccc(O)cc2)C(=O)O)NC(=O)[C@H](C)NC(=O)[C@H]([C@@H](C)CC)NC(=O)[C@H](C(C)C)NC(=O)[C@H](CC(N)=O)NC(=O)[C@H](C(C)C)NC(=O)[C@H](CC(C)C)NC1=O` [AstC-C] (H-SHIRCLVNVIACY-OH; disulfide 5-12), at AstC-R (setting [1]), the 50% effective concentration (EC50) – broadly, the midpoint of the concentration-response curve – came out at 111 nM.

As for `CSCC[C@H](NC(=O)[C@H](CO)NC(=O)[C@H](CO)NC(=O)[C@H](Cc1ccc(O)cc1)NC(=O)[C@@H](N)[C@@H](C)O)C(=O)N[C@H]1CSSC[C@@H](C(=O)N[C@@H](Cc2ccc(O)cc2)C(=O)O)NC(=O)[C@H](C)NC(=O)[C@H](C(C)C)NC(=O)[C@H](C(C)C)NC(=O)[C@H](CC(N)=O)NC(=O)[C@H](Cc2ccccc2)NC(=O)[C@H](CCSC)NC1=O` [AstC-D] (H-TYSSMCMFNVVACY-OH; disulfide 6-13), the concentration for a half-maximal effect (EC50) on AstC-R (setting [1]) is 18.9 nM; at AstC-R (setting [2]), 15.8 nM.

For `CC[C@H](C)[C@@H]1NC(=O)[C@H](CC(C)C)NC(=O)[C@H](CC(N)=O)NC(=O)[C@H](C(C)C)NC(=O)[C@H](CC(C)C)NC(=O)[C@@H](NC(=O)[C@H](CCSC)NC(=O)[C@@H](NC(=O)[C@H](Cc2c[nH]cn2)NC(=O)[C@@H](N)CO)C(C)C)CSSC[C@@H](C(=O)N[C@@H](Cc2ccccc2)C(=O)O)NC(=O)[C@H](CO)NC1=O` [AstC-L] (H-SHVMCLVNLISCF-OH; disulfide 5-12), the figures for the concentration for a half-maximal effect (EC50) at AstC-R (setting [1]) and on AstC-R (setting [2]) were 111 nM and 63.1 nM, respectively.

On to `CSCC[C@H](NC(=O)[C@H](CO)NC(=O)[C@H](CC(N)=O)NC(=O)[C@H](Cc1ccc(O)cc1)NC(=O)[C@H](Cc1c[nH]cn1)NC(=O)[C@@H](N)CO)C(=O)N[C@H]1CSSC[C@@H](C(=O)N[C@@H](Cc2ccc(O)cc2)C(=O)O)NC(=O)[C@H](C)NC(=O)[C@H](C(C)C)NC(=O)[C@H](C(C)C)NC(=O)[C@H](CC(N)=O)NC(=O)[C@H](Cc2ccccc2)NC(=O)[C@H](CCSC)NC1=O` [AstC-T] (H-SHYNSMCMFNVVACY-OH; disulfide 7-14), for which the EC50 on AstC-R (setting [1]) was determined as 17.7 nM.

Turning to `CSCC[C@H](NC(=O)[C@H](CO)NC(=O)[C@H](CO)NC(=O)[C@H](Cc1ccc(O)cc1)NC(=O)[C@H](Cc1c[nH]cn1)NC(=O)[C@@H](N)CO)C(=O)N[C@H]1CSSC[C@@H](C(=O)N[C@@H](Cc2ccc(O)cc2)C(=O)O)NC(=O)[C@H](C)NC(=O)[C@H](C(C)C)NC(=O)[C@H](C(C)C)NC(=O)[C@H](CC(N)=O)NC(=O)[C@H](Cc2ccccc2)NC(=O)[C@H](CCSC)NC1=O` [AstC] (H-SHYSSMCMFNVVACY-OH; disulfide 7-14; N-terminus assumed), at AstC-R, the “Screening: IP1 concentration on AstC-R at 10^–5 M vs 10^–10 M” value (from here on “Screening: IP1 concentration … vs 10^–10 M”) was “significantly increased IP1 concentration”. For the same compound, the “IP1 response of AstC-R, preliminary experiments” value at AstC-R is on record as “none of the receptors responded”. Also, the EC50 is 7.8 nM at AstC-R (setting [1]) and 6.31 nM on AstC-R (setting [2]). Further, the “IP1 response of Class-A_GPCR1, preliminary experiments” value in the experiment with Class-A_GPCR1 was “none of the receptors responded”.

With “AVIPVSSPEPMEEASALQLLPGKI-NH2 [AstCG-DP, AstC gene-derived peptide predicted from the Aplysia AstC precursor, C-terminally amidated]”, on AstC-R, the “Screening: IP1 concentration … vs 10^–10 M” value is “did not activate AstC-R significantly” and the “IP1 response of AstC-R, preliminary experiments” value is “none of the receptors responded”. Further, the “IP1 response of Class-A_GPCR1, preliminary experiments” value with Class-A_GPCR1 is given as “none of the receptors responded”.

As to “MRYMG1CMKKQYNNF1PFPCLRS-NH2 (disulfide) [SPTR, another Aplysia peptide also with a disulfide bridge, reference compound]”, at AstC-R, the “Screening: IP1 concentration … vs 10^–10 M” value was “did not activate AstC-R significantly”.

With “pQPVQCLVNIVSCWamide (disulfide) [allatostatin C]”, on Platynereis receptor, the 50% effective concentration (EC50) was 1000 nM and 1200 nM.
